Experimental data as given in patent US9109004B2, “Progesterone receptor antagonists” (Bayer Intellectual Property GmbH, priority 2010, dated 2015).

Columns and labels:
pregnant rats = assay: Test as abortifacient in female rats (termination of early pregnancy); assay type: in vivo, rat; details: d5-d7 p.c., autopsy d9 p.c.
Protocol: Test as Abortifacient in Female Rats
The antagonistic action of the compounds according to the invention was tested on pregnant rats (6 rats per group) on day 5 to 7 post coitum in conventional conditions of husbandry and feeding.
After successful mating, the pregnant animals (presence of sperm in the vaginal smear on day 1 of pregnancy=d1 p.c.) were randomized and were divided into the treatment group and the control group. The animals then received, subcutaneously or orally, in each case 0.15; 0.5; 1.5 or 5 mg/kg of the test compound or 1.0 ml/kg of vehicle (benzyl benzoate/castor oil: 1+4 [v/v]) daily from day 5 to day 7 (d5-d7 p.c.).
Autopsy was carried out on day 9 (d9 p.c.). For characterization of progesterone-receptor-antagonistic action, the uterus was investigated for the presence of nidation sites. Complete absence, but also the presence of pathological, haemorrhagic or otherwise abnormal nidation sites on day 9 (d9 p.c.) was assessed as abortion.

[1] = molecular target: T1, human progesterone receptor B (Homo sapiens, UniProt P06401); assay: Progesterone-receptor-antagonistic action in stably transfected SK-N-MC cells, MTV-LUC reporter (PR-B); assay type: cell-based; details: antagonistic potency vs 0.1 nmol/l promegestone, 24 hours, luciferase
T1 construct: expressed in transfected cells; host or cells: SK-N-MC human neuroblastoma cells, stably transfected
T1 sequence (P06401 1-933): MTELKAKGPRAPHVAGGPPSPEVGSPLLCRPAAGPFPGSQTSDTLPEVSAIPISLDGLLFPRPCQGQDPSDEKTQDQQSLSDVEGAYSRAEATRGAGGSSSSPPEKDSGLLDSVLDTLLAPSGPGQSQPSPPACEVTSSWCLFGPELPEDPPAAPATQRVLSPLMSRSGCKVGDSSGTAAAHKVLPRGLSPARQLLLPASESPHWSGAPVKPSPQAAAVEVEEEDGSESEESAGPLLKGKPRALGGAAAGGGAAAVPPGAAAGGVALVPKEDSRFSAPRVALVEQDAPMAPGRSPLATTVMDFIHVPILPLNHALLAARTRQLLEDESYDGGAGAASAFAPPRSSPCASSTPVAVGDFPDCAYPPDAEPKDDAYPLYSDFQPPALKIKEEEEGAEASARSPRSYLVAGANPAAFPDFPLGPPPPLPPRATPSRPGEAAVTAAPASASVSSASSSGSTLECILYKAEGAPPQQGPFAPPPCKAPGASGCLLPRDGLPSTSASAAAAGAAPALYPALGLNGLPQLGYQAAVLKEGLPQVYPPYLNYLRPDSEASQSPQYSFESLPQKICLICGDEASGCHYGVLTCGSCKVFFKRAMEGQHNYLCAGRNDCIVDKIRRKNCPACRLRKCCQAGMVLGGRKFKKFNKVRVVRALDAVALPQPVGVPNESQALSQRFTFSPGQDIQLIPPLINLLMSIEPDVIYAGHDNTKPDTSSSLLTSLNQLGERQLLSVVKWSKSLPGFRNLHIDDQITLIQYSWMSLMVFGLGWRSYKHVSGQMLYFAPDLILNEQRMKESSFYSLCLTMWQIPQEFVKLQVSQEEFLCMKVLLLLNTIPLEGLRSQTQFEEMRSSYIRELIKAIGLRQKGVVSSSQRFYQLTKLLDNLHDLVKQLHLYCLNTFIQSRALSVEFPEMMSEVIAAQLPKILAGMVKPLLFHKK
Protocol: Progesterone-Receptor-Antagonistic Action in Stable Transfectants of Human Neuroblastoma Cells (SK-N-MC Cells) with the Human Progesterone A or Progesterone B Receptor and an MTV-LUC Reporter Construct
SK-N-MC cells (human neuroblastoma cells) that have been stably transfected with plasmids that express the human progesterone receptor B (pRChPR-B-neo) or the human progesterone receptor A (pRChPR-A-neo) and a reporter construct (pMMTV-LUC), were incubated for 24 hours either in the absence (negative control) or in the presence of increasing amounts of the particular test compound (0.01 nmol/l, 0.1 nmol/l, 1 nmol/l, 10 nmol/l, 100 nmol/l and 1 μmol/l), to determine the agonistic efficacy. As positive control of reporter gene induction, the cells were treated with the synthetic gestagen promegestone (0.01 nmol/l, 0.1 nmol/l, 1 nmol/l, 10 nmol/l, 100 nmol/l and 1 μmol/l). For determination of the antagonistic activity, the cells were treated with 0.1 nmol/l promegestone and additionally with increasing amounts of the particular test compound (0.01 nmol/l, 0.1 nmol/l, 1 nmol/l, 10 nmol/l, 100 nmol/l and 1 μmol/l). The activity of the reporter gene LUC (LUC=luciferase) was determined in the cell lysates and was measured as RLU (relative light units). All measured values are given as % efficacy and as EC50 or IC50 concentrations.

[2] = Metabolic stability in human liver microsomes (HLM); assay type: in vitro ADME; details: from HLM half-life, well-stirred model, phase I reactions; 1 μM test compound
Protocol: Metabolic stability of 4-[(11β,17β)-17-hydroxy-3-oxo-17-(pentafluoro-ethyl)estra-4,9-dien-11-yl]benzamide and 4′-[(11β,17β)-17-hydroxy-3-oxo-17-(pentafluoro-ethyl)estra-4,9-dien-11-yl]biphenyl-4-carboxamide in human liver microsomes (HLM) Isolated human liver microsomes (HLM) were used for assessing the metabolic stability of compounds of general formula I. The incubations were carried out with 2.4 ml HLM solution (0.5 mg/ml protein content), 30 μl of the test compound (final concentration 1 μM) and 0.6 ml of the cofactor mixture (=NADPH-generating system of 3 IU glucose-6-phosphate dehydrogenase, 14.6 mg glucose-6-phosphate, 1.2 mg NADP) at 37° C. in 100 mM phosphate buffer at pH 7.4. Samples are taken at 6 time points (2-60 min), precipitated with an equal volume of methanol, and the recovery of the test substances used in the supernatant is determined by LC-MS/MS analysis. The intrinsic clearance of the substance in the liver microsome assay can be calculated from the value found for the half-life of substance breakdown. Using this, on the basis of various physiological characteristics according to the well-stirred model it is possible to predict a (metabolic) in-vivo clearance with respect to phase I reactions.

IC50 [1]: 0.9 nM
(metabolic) in-vivo clearance in humans predicted [2]: 0.33 L/h/kg
SMILES: C[C@]12C[C@H](c3ccc(C(N)=O)cc3)C3=C4CCC(=O)C=C4CC[C@H]3[C@@H]1CC[C@@]2(O)C(F)(F)C(F)(F)F [Example 1, 4-[(11β,17β)-17-Hydroxy-3-oxo-17-(pentafluoroethyl)estra-4,9-dien-11-yl]benzamide]
Abortion rate (pregnant rats; daily dose 0.5 mg/kg p.o.): 0%
Abortion rate (pregnant rats; daily dose 1.5 mg/kg p.o.): 50%
Abortion rate (pregnant rats; daily dose 5.0 mg/kg p.o.): 100%
